Publication PMC6162288, “On-chip spatiotemporal electrophysiological analysis of human stem cell derived cardiomyocytes enables quantitative assessment of proarrhythmia in drug development” (Scientific Reports, 2018)
Where “and” joins values, the source holds several entries; their conditions need not be identical. Equal entries are not always repeated. Entries after “also recorded” stand apart in the source; their conditions may differ. Where two headings read alike, the source gives them in different places. Blank lines part the entries; values can stand above or below the compound they belong to.

How the values were obtained:
[1] = system: lined-up hESC-CMs; experiment: MEA field potential recording of lined-up hESC-CMs (cFPD, CT, their STVs, ISI, beat rate, arrest); type: cell-based, human; details: for CT: at equivalent concentrations of Nav1.5 IC50; for Arrest: arrest cases/chips
Protocol: Human embryonic stem cell-derived cardiomyocytes clusters (hES-CMCs) were shipped from Cellectis (hES-CMCTM002, hES cell line SA002, Gothenburg, Sweden)[42],[43], and maintained in Dulbecco’s modified Eagle’s medium (DMEM) supplemented 20% heat-inactivated fetal bovaine serum, 1 mM GlutaMax, 100 U/mL penicillin, 0.1 mg/mL streptomycin, 1% nonessential amino acids and 0.1 mM β-mercaptoethanol (Invitrogen, Carsbad, CA, USA). Dispersed cardiomyocytes were isolated from hES-CMCs by a modification of the methods of Norström et al.[44]–[48]. […] The supernatant was gently aspirated with pipette, and a 5-hold volume of DMEM was added as stop solution. Remaining clusters were treats ed with the above process with several times. The supernatants were collected and centrifuged with 200 × g for 2–3 min at 4 °C. The resulting supernatant including dispersed cells was seeded into agarose microchambers on an MEA chip (MED-P530A; AlphaMED scientific. Co. Ltd., Japan)[40].
The MEA chip surface was prepared as follows. First, the chip surface was coated with collagen type I-C (Nitta Gelatin, Japan). After drying, the chip surface was coated with a 0.1% agarose gel. […] At >30 min before the start of experiment, the medium was changed to 2 mL pre-warmed fresh maintenance medium per chip.
Extracellular potential recordings of the lined-up hESC-CMs were performed using the MEA system at a sampling rate of 10 kHz with a low path filter of 2 kHz and high path filter of 1 Hz, and signals were amplified by 100–50,000 using the amplifier. The MEA chip with lined-up hESC-CMs was set in the FP measurement device and placed in a humidified cell culture incubator at 37 °C, 5% CO2. The signals were analyzed by Igor Pro 6.0 (WaveMetrics, Inc., USA) and FlexPro 7.0 (Weisang GmbH, Germany).
We adopted the same drug administration protocol as we examined previously[40] (Fig. 2B). Briefly, the MEA chips of lined-up cells for experiments were selected from the chips having 0.6–1.1 Hz beating frequency and ventricle-like waveforms of FP recordings (see Fig. 1B,D). The MEA chip was placed in the holder of the FP measurement device, and equilibrated for 5 min, and then the control FP waveforms were recorded for 10 min. Subsequently, the drug was applied to the medium at 1% dilution in serially increasing additions, and the FP waveforms were recorded for 10 min at each concentration. Finally, the drug-containing medium was replaced with fresh medium after washing three times. The last 50 beats extracted from 10 min recorded FP waveform data was used for beat rate, FPD (the time from first depolarization peak to broad repolarization peak) and CT (the time difference of the first peaks between separately placed electrodes in lined-upped cell-network) measurement at each concentration (Fig. 2C).
It was normalized (cFPD) to the beating rate of cardiomyocytes using Bazett’s correction formula based on the comparison of the slope of a plot of inter-spike interval and FPD, or corrected FPD by Bazett’s or Fridericia’s formulae (Fig. 3). The short-term variability (STV) of cFPD and CT, which was defined as the mean distance of points perpendicular to the line of identity in the Poincaré plot, was calculated ( STV=∑|D(n+1)−Dn|/(n×2) , where Dn represents the FPD and CT of n-th beating). STVs were last 50 beat data from 5 min extraction of cFPD and CT. To assess the arrhythmogenicity risk of test drugs, the mean values of cFPD, STVcFPD, CT and STVCT of each drug were plotted.

[2] = cited from earlier work; for EPTC: effective therapeutic plasma concentration
[3] = system: Cav1.2; details: cited from earlier work
[4] = system: Nav1.5; details: cited from earlier work
[5] = system: hERG; details: read-out: IC50 hERG; cited from earlier work
[6] = Conc. 10^2 nM (0.1 μM), change vs Ctrl.
[7] = Conc. 10^3 nM (1 μM), change vs Ctrl.
[8] = Conc. 10^−1 nM, change vs Ctrl.
[9] = Conc. 10^4 nM (10 μM), change vs Ctrl.
[10] = Conc. 10^5 nM (100 μM), change vs Ctrl.
[11] = Conc. 10^5 nM (100 μM), change vs Ctrl., listed as lidocaine
[12] = Conc. 10^5 nM (100 μM), change vs Ctrl., listed as terfenadine

Compound: Cc1cccc(CCN2CCC(C(=O)c3ccc(NS(C)(=O)=O)cc3)CC2)n1 [E-4031]
STVcFPD ([1]; 1 μM): more than doubled
BR (beat rate) ([1]; Conc. 1 nM, change vs Ctrl.): 3.9%
Cond. Time (CT) ([1]; Conc. 1 nM, change vs Ctrl.): −4.3%
ISI (inter-spike interval) ([1]; Conc. 1 nM, change vs Ctrl.): −3.7%
STVCT ([1]; Conc. 1 nM, change vs Ctrl.): 19%
STVcFPD ([1]; Conc. 1 nM, change vs Ctrl.): −3.6%
cFPD ([1]; Conc. 1 nM, change vs Ctrl.): 0.69%
BR (beat rate) ([1]; Conc. 10 nM, change vs Ctrl.): 4.5%
Cond. Time (CT) ([1]; Conc. 10 nM, change vs Ctrl.): 2.1%
ISI (inter-spike interval) ([1]; Conc. 10 nM, change vs Ctrl.): −4.2%
STVCT ([1]; Conc. 10 nM, change vs Ctrl.): 5.7%
STVcFPD ([1]; Conc. 10 nM, change vs Ctrl.): 17%
cFPD ([1]; Conc. 10 nM, change vs Ctrl.): 7.1%
Cond. Time (CT) [1, 6]: 10%
STVCT [1, 6]: 43%
STVcFPD [1, 6]: 94%
cFPD [1, 6]: 30%
cFPD ([1]; Conc. 10^2 nM (0.1 μM), change vs Ctrl., listed as E-4301): 30%
BR (beat rate) ([1]; Conc. 10^2 nM, change vs Ctrl.): 5.1%
ISI (inter-spike interval) ([1]; Conc. 10^2 nM, change vs Ctrl.): −4.7%
Cond. Time (CT) [1, 7]: 49%
STVcFPD [1, 7]: 110%
cFPD [1, 7]: 47%
cFPD ([1]; Conc. 10^3 nM (1 μM), change vs Ctrl., listed as E-4301): 47%
BR (beat rate) ([1]; Conc. 10^3 nM, change vs Ctrl.): 5.8%
ISI (inter-spike interval) ([1]; Conc. 10^3 nM, change vs Ctrl.): −5.1%
BR (beat rate) [1, 8]: 2.6%
ISI (inter-spike interval) [1, 8]: −2.5%
STVCT [1, 8]: 52%
STVcFPD [1, 8]: 2.9%
cFPD [1, 8]: 0.52%
Cond. Time (CT) ([1]; Conc. 10^−1 nM, change vs Ctrl., 150 μm inter-electrode distance): 8.9%
CT (mean conduction time) ([1]; any tested concentration): did not significantly change; also recorded: did not increase

Compound: CCN(CC)CC(=O)Nc1c(C)cccc1C [Lidocaine, lidocaine]
cFPD change ([1]; 10–100 μM, P < 0.05): −18%
BR (beat rate) ([1]; Conc. 10 nM, change vs Ctrl.): 3.6%
ISI (inter-spike interval) ([1]; Conc. 10 nM, change vs Ctrl.): −3.4%
STVCT ([1]; Conc. 10 nM, change vs Ctrl.): 46%
STVcFPD ([1]; Conc. 10 nM, change vs Ctrl.): 54%
cFPD ([1]; Conc. 10 nM, change vs Ctrl.): 9.5%
Cond. Time (CT) [1, 6]: −6.0%
STVCT [1, 6]: 43%
STVcFPD [1, 6]: 38%
cFPD [1, 6]: 10%
BR (beat rate) ([1]; Conc. 10^2 nM, change vs Ctrl.): 4.4%
ISI (inter-spike interval) ([1]; Conc. 10^2 nM, change vs Ctrl.): −4.2%
Cond. Time (CT) [1, 7]: −7.4%
STVCT [1, 7]: 35%
STVcFPD [1, 7]: 54%
cFPD [1, 7]: 9.7%
BR (beat rate) ([1]; Conc. 10^3 nM, change vs Ctrl.): 2.8%
ISI (inter-spike interval) ([1]; Conc. 10^3 nM, change vs Ctrl.): −2.6%
Cond. Time (CT) [1, 9]: 4.7%
STVCT [1, 9]: 134%
STVcFPD [1, 9]: 345%
cFPD [1, 9]: −18%
STVCT ([1]; Conc. 10^4 nM (10 μM), change vs Ctrl., listed as lidocaine): 134%
BR (beat rate) ([1]; Conc. 10^4 nM, change vs Ctrl.): −48%
ISI (inter-spike interval) ([1]; Conc. 10^4 nM, change vs Ctrl.): 128%
Cond. Time (CT) [1, 10]: 22%
STVCT [1, 10]: 54%
STVcFPD [1, 10]: 143%
cFPD [1, 10]: −18%
Cond. Time (CT) [1, 11]: 22.1%
STVCT [1, 11]: 54%
BR (beat rate) ([1]; Conc. 10^5 nM, change vs Ctrl.): −51%
ISI (inter-spike interval) ([1]; Conc. 10^5 nM, change vs Ctrl.): 160%
CT [1]: increased
EPTC [2]: 5,970–25,603[69] nM

Arrest ([1]; Conc. 10^4 nM): 3/7
Compound: CC(C)(C)c1ccc(C(O)CCCN2CCC(C(O)(c3ccccc3)c3ccccc3)CC2)cc1 (stereo not drawn) [Terfenadine, terfenadine]
CT increase ([1]; 3 μM, n = 4, P < 0.05): 189%
BR (beat rate) ([1]; Conc. 10 nM, change vs Ctrl.): 4.6%
Cond. Time (CT) ([1]; Conc. 10 nM, change vs Ctrl.): 32%
STVCT ([1]; Conc. 10 nM, change vs Ctrl.): 37%
STVcFPD ([1]; Conc. 10 nM, change vs Ctrl.): 76%
cFPD ([1]; Conc. 10 nM, change vs Ctrl.): 2.3%
STVCT [1, 6]: 16%
STVcFPD [1, 6]: −3.4%
cFPD [1, 6]: 2.8%
Cond. Time (CT) [1, 7]: 101%
STVCT [1, 7]: 228%
STVcFPD [1, 7]: 37%
cFPD [1, 7]: 0.25%
STVCT ([1]; Conc. 10^3 nM (1 μM), change vs Ctrl., listed as terfenadine): 228%
BR (beat rate) ([1]; Conc. 10^3 nM, change vs Ctrl.): −3.0%
ISI (inter-spike interval) ([1]; Conc. 10^3 nM, change vs Ctrl.): 3.1%
Cond. Time (CT) [1, 9]: 189%
STVCT [1, 9]: 511%
STVcFPD [1, 9]: 65%
cFPD [1, 9]: −26%
cFPD ([1]; Conc. 10^4 nM (10 μM), change vs Ctrl., listed as terfenadine): −26%
BR (beat rate) ([1]; Conc. 10^4 nM, change vs Ctrl.): −38%
ISI (inter-spike interval) ([1]; Conc. 10^4 nM, change vs Ctrl.): 122%
Cond. Time (CT) [1, 10]: 198%
STVCT [1, 10]: 143%
STVcFPD [1, 10]: 243%
STVcFPD [1, 12]: 243%
cFPD [1, 12]: −78%
BR (beat rate) ([1]; Conc. 10^5 nM, change vs Ctrl.): −88%
ISI (inter-spike interval) ([1]; Conc. 10^5 nM, change vs Ctrl.): 744%
CT [1]: increased
FPD ([1]; concentrations more than 10 μM): FPD shortening
EPTC [2]: 3.3 to 9.7 nM
Unbound ([2]; unbound therapeutic plasma concentration): 0.1 to 0.29 nM

Compound: O=C(NCC1CCCCN1)c1cc(OCC(F)(F)F)ccc1OCC(F)(F)F (stereo not drawn) [Flecainide, flecainide]
STVcFPD increase ([1]; 10–100 μM): about 50%
BR (beat rate) ([1]; Conc. 10 nM, change vs Ctrl.): 2.6%
Cond. Time (CT) ([1]; Conc. 10 nM, change vs Ctrl.): −3.2%
ISI (inter-spike interval) ([1]; Conc. 10 nM, change vs Ctrl.): −2.5%
STVCT ([1]; Conc. 10 nM, change vs Ctrl.): 7.0%
cFPD ([1]; Conc. 10 nM, change vs Ctrl.): 0.13%
Cond. Time (CT) [1, 6]: 12%
STVCT [1, 6]: 61%
STVcFPD [1, 6]: −16%
cFPD [1, 6]: 3.4%
BR (beat rate) ([1]; Conc. 10^2 nM, change vs Ctrl.): 3.9%
ISI (inter-spike interval) ([1]; Conc. 10^2 nM, change vs Ctrl.): −3.7%
Cond. Time (CT) [1, 7]: −0.65%
STVCT [1, 7]: 36%
STVcFPD [1, 7]: 0.32%
cFPD [1, 7]: 1.8%
BR (beat rate) ([1]; Conc. 10^3 nM, change vs Ctrl.): 4.5%
ISI (inter-spike interval) ([1]; Conc. 10^3 nM, change vs Ctrl.): −4.2%
Cond. Time (CT) [1, 9]: 64% and 65%
STVCT [1, 9]: 288%
STVcFPD [1, 9]: 41%
cFPD [1, 9]: 0.11%
STVCT ([1]; Conc. 10^4 nM (10 μM), change vs Ctrl., listed as flecainide): 287%
BR (beat rate) ([1]; Conc. 10^4 nM, change vs Ctrl.): 5.1%
ISI (inter-spike interval) ([1]; Conc. 10^4 nM, change vs Ctrl.): −4.7%
Cond. Time (CT) [1, 10]: −3.6%
STVCT [1, 10]: 263%
STVcFPD [1, 10]: 54%
cFPD [1, 10]: −14%
Arrest ([1]; Conc. 10^5 nM): 1/4
BR (beat rate) ([1]; Conc. 10^5 nM, change vs Ctrl.): 5.8%
ISI (inter-spike interval) ([1]; Conc. 10^5 nM, change vs Ctrl.): −5.1%
CT [1]: increased
FPD ([1]; up to 100 μM): did not show FPD prolongation
IC50 ([4]; read-out: IC50 Nav1.5): 34 µM
IC50 ([4]; ref Table 1, read-out: Nav1.5 IC50): ~34 µM
IC50 [5]: 1.8 µM
IC50 ([3]; read-out: Cav1.2 IC50, ref Table 1): 56 µM
IC50 ([3]; read-out: IC50 Cav1.2): 55.9 µM
